Structures can show the parent of a compound that is named as a salt.
How the values were obtained:
Type in all cases: in vivo
serum cortisol = assay: Serum cortisol level in CMS-treated rats (radioimmunoassay)
Method: (§1) 3. Administration and Doses • Non CMS-treated Saline group: 10 ml/kg/day. • CMS-treated Saline group: 10 ml/kg/day. • Composition I (200) group: 200 mg/kg/day. • Composition I (150) group: 150 mg/kg/day. • Fluoxetine group (positive control): 10 mg/kg/day.
(§2) Animals therein were divided randomly into the following four subgroups: • (1) Composition I (200) group: received composition I at 200 mg/kg/day; • (2) Composition I (150) group: received composition I at 150 mg/kg/day; • (3) Fluoxetine group: received fluoxetine 10 mg/kg/day; (positive control); • (4) CMS-treated saline group: received saline 10 mL/kg/day. (negative control).
(§3) 24 h after the last test of sucrose intake, between 10:00 a.m. and 11:00 a.m., all animals were decapitated quickly to get venous blood. Serum was separated by centrifugation at 3000 rpm and stored at −20° C. until assay of cortisol concentration. Brain tissues were rapidly removed on the ice-plate. The tissues were washed with cold saline, blotted dry and stored at −80° C. until assays of monoamine oxidase A and B (MAO-A and MAO-B) activity.
Serum cortisol level was assayed using a radioimmunoassay method following the manufacturer's instructions. (Manufacturer: Bejing Furui Biotechnology Company, P.R. China. Product code: FR-FJ-055).

brain MAO-A = target: T1, brain MAO-A (Rattus norvegicus, UniProt P21396); assay: Brain MAO-A activity in CMS-treated rats; settings: brain of CMS-treated rats, 10 mg/kg oral daily for 6 weeks
T1 construct: Rat brain mitochondrial fractions were prepared; from tissue; host or cells: rat brain mitochondrial fraction
T1 sequence (P21396 1-526): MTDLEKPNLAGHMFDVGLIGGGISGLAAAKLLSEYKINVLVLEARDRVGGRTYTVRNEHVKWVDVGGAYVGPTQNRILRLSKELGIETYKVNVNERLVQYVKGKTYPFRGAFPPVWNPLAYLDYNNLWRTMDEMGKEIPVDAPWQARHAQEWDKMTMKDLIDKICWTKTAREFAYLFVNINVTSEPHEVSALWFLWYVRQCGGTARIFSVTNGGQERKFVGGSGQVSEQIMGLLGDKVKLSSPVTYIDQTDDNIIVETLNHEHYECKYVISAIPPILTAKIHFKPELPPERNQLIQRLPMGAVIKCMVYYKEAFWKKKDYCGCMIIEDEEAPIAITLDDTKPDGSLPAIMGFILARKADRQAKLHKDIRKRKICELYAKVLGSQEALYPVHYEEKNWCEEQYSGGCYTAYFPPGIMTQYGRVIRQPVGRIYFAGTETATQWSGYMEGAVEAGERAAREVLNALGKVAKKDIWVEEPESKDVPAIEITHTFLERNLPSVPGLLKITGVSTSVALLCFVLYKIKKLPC
Method: as §1, §2, §3
(§4) Rat brain mitochondrial fractions were prepared following the procedure described in Schurr and Livne, 1976. MAO activity was assessed by spectrophotometer as described in Yu et al., 2002. […] The organic phase was measured at wavelength of 280 nm and 242 nm for MAO-A and MAO-B assay with spectrophotometer, respectively. […]

CMS-treated rats = assay: Sucrose intake test in chronic mild stress (CMS) model; settings: for sucrose intake: CMS-treated rats, 10 mg/kg oral daily
Description: In the CMS model, rats are exposed sequentially, over a period of weeks, to a variety of mild stressors, and the measure most commonly used to track the effects is a decrease in consumption of a palatable sweet solution. This […] of antidepressants to increase sucrose intake in CMS model of rats. […] These impairments could be reversed by chronic administration of antidepressants such as tricyclic antidepressants, selective serotonin reuptake inhibitors and monoamine oxidase inhibitors. […] (Willner P. 1997)
Male Wistar rats, weighing 180-220 g at the start of the experiment, were used in the experiments. During the one week before experiment, each rat was housed individually in a home cage, and had free access to food and water. They were maintained on a 12 h light/dark cycle under controlled temperature 25±2° C. and tested in the light phase.
as §1
The above substances at various concentrations were dissolved in saline. The volume of the suspension administered was based on body weight measured immediately prior to each dose, respectively. All groups were administered orally for six weeks, once per day. All groups except for Non-CMS-treated saline group received CMS treatment as described below.
All animals were trained to consume 1% (w/v) sucrose solution in water. The training was conducted twice a week for consecutive 3 weeks. In the training, the rats in the home cage were deprived of food and water for 14 hours. After 14 hours, about 30 ml of 1% (w/v) sucrose solution in a pre-weighed bottled was placed in the home cages. 1 hour later, the bottle was taken out from the cage and weighed. The sucrose intake was calculated as follows: […]
Calculation: Weight of Bottle Before Intake (g)—Weight of Bottle After Intake (g)
After three weeks of training, when the sucrose intake of rats was stabilized, the rats started to receive further treatment. During the whole treatment period, the sucrose intakes of rats were monitored once every week from 9:00 a.m. to 10:00 a.m. with the same procedures as described above.
After the three-weeks training, the rats were randomly divided into two groups: the non-CMS treated group and CMS-treated group. The stress group of animals was subjected to the CMS procedure for a period of four consecutive weeks. Each week of stress regime is consisted of six different stress situations. They involved two periods of food and water deprivation, two periods of 45 o cage tilt, two periods of intermittent illumination (lights on and off every 2 h), two periods of soiled cage (200 mL water in sawdust bedding), two periods of paired housing, and two periods of low intensity stroboscopic illumination (150 flashes/min). All of the stressors were 12-14 h of duration and were applied individually and sequentially, day and night.
as §2
The rats in non-CMS treated group received saline solution at 10 mL/kg orally. All administrations were given orally once daily at 10:00 a.m. for consecutive 6 weeks.

Male ICR mice [1] = assay: Forced swimming test (FST) in mice; settings: oral once daily, 26 mg/kg
Description: A major symptom of depression is decrease of motivational behaviors. In the FST model, the mice were forced to swim in a restricted space. First, they struggle in attempt to escape, which is a motivational behavior. After a period of time, the mice started to show occasional immobility, representing a “despair” mental state. The immobility is regarded as “failure to adapt to stress” and can be served as an indicator of the level of depression. The effectiveness of anti-depression drugs could be derived by measuring the duration of immobility after the mice had been forced to swim for a period of time. The model is sensitive to anti-depression drugs and is widely adopted as a means to screen such drugs. (Porsolt et al., 1977)
(§5) Male ICR mice (26±2 g) were used. The mice were housed in polycarbonate cages. […]
(§6) The animals were deprived of food but not water for 1.5 h prior to drug administration of. […] The volume of the suspension administered was based on body weight measured immediately prior to each dose, respectively. […]
The studies were carried out on mice according to the method of Porsolt (Porsolt, et al., 1977). […] The duration of immobility time was measured during the final 4 min interval of the test. […]
(§7) All data were expressed as mean±SEM, and analyzed using one-way analysis of variance (ANOVA). […]

Male ICR mice [2] = assay: Tail suspension test (TST) in mice; settings: oral once daily, 26 mg/kg
Description: A major symptom of depression is decrease of motivational behaviors. In the TST model, the tail-suspended mice struggle in attempt to overcome the abnormal body positions, which is a motivational behavior. After a period of time, the mice started to show occasional immobility, representing a “despair” mental state. The immobility is regarded as “failure to adapt to stress” and can be served as an indicator of the level of depression. The effectiveness of anti-depression drugs could be derived by measuring the duration of immobility after the mice had been tail-suspended for a period of time. The model is sensitive to anti-depression drugs and is widely adopted as a means to screen such drugs. (Steru L, Chermat R, Thierry B, Simon P. 1985.)
as §5, §6
The tail suspension test was based on the method of Steru (Steru, et al., 1985). […] The duration of immobility time was recorded during the final 4 min interval of the test. […]
as §7

brain MAO-B = target: T2, brain MAO-B (Rattus norvegicus, UniProt P19643); assay: Brain MAO-B activity in CMS-treated rats; settings: brain of CMS-treated rats, 10 mg/kg oral daily for 6 weeks
T2 construct: Rat brain mitochondrial fractions were prepared; from tissue; host or cells: rat brain mitochondrial fraction
T2 sequence (P19643 1-520): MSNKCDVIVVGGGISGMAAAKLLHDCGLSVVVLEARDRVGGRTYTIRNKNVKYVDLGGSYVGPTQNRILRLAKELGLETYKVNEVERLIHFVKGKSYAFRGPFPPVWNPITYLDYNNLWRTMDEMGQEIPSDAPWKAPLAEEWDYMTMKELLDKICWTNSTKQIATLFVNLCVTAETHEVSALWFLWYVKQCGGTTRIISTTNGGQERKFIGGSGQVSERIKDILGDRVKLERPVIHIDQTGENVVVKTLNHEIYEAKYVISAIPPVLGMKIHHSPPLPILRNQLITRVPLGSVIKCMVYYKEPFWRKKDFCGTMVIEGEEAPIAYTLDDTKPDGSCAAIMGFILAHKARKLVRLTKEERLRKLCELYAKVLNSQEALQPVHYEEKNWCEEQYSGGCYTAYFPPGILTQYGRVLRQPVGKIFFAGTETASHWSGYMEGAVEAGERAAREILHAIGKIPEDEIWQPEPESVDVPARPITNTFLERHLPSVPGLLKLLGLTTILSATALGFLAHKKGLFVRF
Method: as §1, §2, §3, §4

SMILES: CNCCC(Oc1ccc(C(F)(F)F)cc1)c1ccccc1 (stereo not drawn) [Fluoxetine, Fluoxetine Hydrochloride]
- effect on serum cortisol levels (in words) (serum cortisol; CMS-treated rats, fluoxetine (10 mg/kg)): did not cause any significant alteration
- Cortisol level (serum cortisol; serum of CMS-treated rats, 10 mg/kg oral daily for 6 weeks): 28.76 ± 0.56 ng/mL
- MAO activity A (brain MAO-A): 78.05 ± 3.68 U/g protein
- inhibition at 10 mg/kg (brain MAO-A; rat): 16.4%
- recovery of the sucrose intake (in words) (CMS-treated rats; CMS rats, fluoxetine-treated (10 mg/kg)): not as strong as those treated with Composition (I)
- sucrose intake (CMS-treated rats; week 0 of drug treatment): 5.3 ± 1.4 g
- sucrose intake (CMS-treated rats; week 1): 5.5 ± 1.3 g
- sucrose intake (CMS-treated rats; week 2): 5.9 ± 1.4 g
- sucrose intake (CMS-treated rats; week 3): 7.3 ± 1.5 g
- sucrose intake (CMS-treated rats; week 4): 8.9 ± 1.1 g
- sucrose intake (CMS-treated rats; week 5): 10.4 ± 1.3 g
- sucrose intake (CMS-treated rats; week 6): 13.9 ± 1.3 g
- Duration of immobility (Male ICR mice [1]; 3 days): 67.6 ± 10.2 s
- Duration of immobility (Male ICR mice [1]; 7 days): 67.1 ± 8.9 s
- Duration of immobility (Male ICR mice [2]; 3 days): 23.2 ± 5.2 s
- Duration of immobility (Male ICR mice [2]; 7 days): 28.8 ± 6.4 s
- MAO activity B (brain MAO-B): 54.50 ± 3.56 U/g protein
- inhibition at 10 mg/kg (brain MAO-B; rat): 54%

From US20060147569A1, “Anti-depression formulations” (priority 2005, published 2006)
